Test results as given in ChEMBL document CHEMBL1201862, “PubChem BioAssay data set” (2004).
Counter-ions that a name gives are not always drawn. Activity calls are given as the source filed them.

Key:
[1] = IC50 of insulin release inhibition, rat insulinoma INS-1E line, 5 mM glucose, cell-based (AID 1117331); assay type: functional
[2] = cells; assay type: functional, cell-based; conditions: INS-1E
[3] = test system: Vero; experiment: Vero cell viability after compound exposure – synthesized analogs, set II, cytotoxicity control for West Nile virus antiviral project, SAR follow-up (AID 2402); assay type: functional; conditions: Chlorocebus sabaeus
[4] = target: Ephrin type-A receptor 4 (Mus musculus, UniProt Q03137); experiment: EphA4 ligand-binding antagonists – biochemical, colorimetric, mouse EphA4, primary screen (AID 689); assay type: functional
[5] = target: Cytochrome P450 2C19 (Homo sapiens, UniProt P33261); experiment: Cytochrome panel assay with activity outcomes. Panel member name: p450-cyp2c19 Compounds with AC50 equal or less than 10 uM are considered active; assay type: functional; conditions: read-out: AC50
[6] = target: Cytochrome P450 3A4 (Homo sapiens, UniProt P08684);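 also: CYP3A4 tested as one member of a cytochrome P450 panel screen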
[7] = target: T1, Fibrinogen beta chain (Homo sapiens, UniProt P02675); experiment: Fluorescence polarization-based biochemical high throughput dose response assay to identify inhibitors that disrupt the binding of a cyclic peptide (Tn6) to the fibrin proteolytic product D-Dimer and fragment E complex [DD(E )].
[8] = target: T1, Fibrinogen beta chain; experiment: Fluorescence polarization-based biochemical high throughput dose response assay to identify inhibitors that disrupt the binding of a cyclic peptide (Tn7) to the fibrin proteolytic product D-Dimer and fragment E complex [DD(E )].
[9] = test system: BJ; experiment: BJ-TERT fibroblast viability loss – cell-based, RAS-independent, luminescence, dose response (AID 1933); assay type: functional; conditions: Homo sapiens
[10] = test system: BJ; experiment: cells; assay type: functional, cell-based; conditions: Homo sapiens
[11] = test system: BJ; experiment: BJ-TERT-LT-ST fibroblast viability loss – cell-based, RAS-independent, luminescence, dose response (AID 1935); assay type: functional; conditions: Homo sapiens;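 also: BJ fibroblasts immortalized with TERT plus LT and ST oncogenes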
[12] = DRD fibroblast viability loss – cell-based, non-viral oncogenic, luminescence, dose response (AID 1934); assay type: functional; conditions: Homo sapiens
[13] = HEK-293T viability loss after treatment – luminescence, T-cell screen hits, cytotoxicity control for TCR NF-kB inhibitor project, dose response (AID 489026); assay type: functional, cell-based;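 also: cells exposed to compound about 14 hours before the viability readout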
[14] = target: Paired box protein Pax-8 (Homo sapiens, UniProt Q06710); experiment: PAX8 transcriptional activity inhibition in RMG-I – RMG-I cells, luciferase, cherry-pick, dose response (AID 687027); assay type: functional, cell-based;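 also: luciferase reporter driven by Pax8 target thyroperoxidase promoter measured by SteadyGlo luminescence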
[15] = inhibitors acting on PAX2 in cells – cell-based, plate reader, dry powder samples, selectivity assay for PAX8 inhibitor project, dose response (AID 743048); assay type: functional;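 also: HEK293 cells carrying a WT1 promoter luciferase reporter driven by expressed Pax2; potency is for inhibition of Pax2 driven reporter signal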
[16] = toxicity toward immortalized ovarian surface epithelium – cell-based, plate reader, dry powder samples, cytotoxicity control for PAX8 inhibitor project, dose response (AID 743045); assay type: functional
[17] = A2780 cell killing – plate reader, dry powder samples, cytotoxicity control, dose response (AID 743046); assay type: functional, cell-based
[18] = OVCAR-3 cell viability loss – plate reader, dry powder samples, PAX8 inhibitor project, dose response (AID 743044); assay type: functional, cell-based
[19] = PAX5 cellular inhibition readout – cell-based, plate reader, dry powder samples, selectivity assay for PAX8 inhibitor project, dose response (AID 743047); assay type: functional;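 also: HEK293 cells carrying a Pax5 driven CD19 promoter luciferase reporter; potency of inhibitors that lower reporter luminescence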
[20] = IGROV1 cell killing – plate reader, dry powder samples, PAX8 inhibitor project, dose response (AID 743043); assay type: functional, cell-based; conditions: IGROV-1
[21] = OVCAR4 cell viability loss – plate reader, dry powder, SA11, cytotoxicity control for PAX8 inhibitor project, dose response (AID 743150); assay type: functional, cell-based; conditions: OVCAR-4
[22] = COV434 cell viability loss – plate reader, dry powder, SA7, cytotoxicity control for PAX8 inhibitor project, dose response (AID 743145); assay type: functional, cell-based
[23] = OV-90 cell viability loss – plate reader, dry powder, SA8, PAX8 inhibitor project, dose response (AID 743149); assay type: functional, cell-based
[24] = PAX8-dependent cell viability loss – plate reader, dry powder, dose response (AID 743049); assay type: functional, cell-based
[25] = M. tuberculosis growth inhibition, HTS (AID 449762); assay type: functional
[26] = Late stage results for the probe development effort to identify inhibitors of Plasmodium falciparum gametocytes: Luminescence-based cell-based high throughput dose response assay to identify inhibitors of viability of late stage Plasmodium falciparum gametocytes.; assay type: functional
[27] = glucagon-like peptide-1 release potency in STC-1, concentration-response, half-maximal inhibitory concentration in the STC-1 line (AID 1117345); assay type: functional, cell-based
[28] = Potency on glucagon-like peptide 1 release, dose-response in NCI-H716 cell line, half maximal inhibitory concentration (AID 1117344); assay type: functional, cell-based

T1 sequence (P02675 whole entry, the tested form may be a part): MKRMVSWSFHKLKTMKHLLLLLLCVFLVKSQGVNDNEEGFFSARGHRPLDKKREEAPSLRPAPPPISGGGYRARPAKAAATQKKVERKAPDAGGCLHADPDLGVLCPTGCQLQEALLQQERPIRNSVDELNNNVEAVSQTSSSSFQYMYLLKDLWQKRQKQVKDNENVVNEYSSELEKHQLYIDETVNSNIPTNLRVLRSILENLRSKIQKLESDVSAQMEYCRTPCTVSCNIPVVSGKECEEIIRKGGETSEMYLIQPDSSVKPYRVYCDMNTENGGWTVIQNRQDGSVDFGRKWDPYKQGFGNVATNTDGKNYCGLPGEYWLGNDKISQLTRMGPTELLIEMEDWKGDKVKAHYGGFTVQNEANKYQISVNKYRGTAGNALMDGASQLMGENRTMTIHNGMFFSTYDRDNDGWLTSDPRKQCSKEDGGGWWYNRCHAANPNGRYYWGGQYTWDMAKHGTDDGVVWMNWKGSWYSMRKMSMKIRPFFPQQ
Sequence of Ephrin type-A receptor 4 (Q03137 whole entry): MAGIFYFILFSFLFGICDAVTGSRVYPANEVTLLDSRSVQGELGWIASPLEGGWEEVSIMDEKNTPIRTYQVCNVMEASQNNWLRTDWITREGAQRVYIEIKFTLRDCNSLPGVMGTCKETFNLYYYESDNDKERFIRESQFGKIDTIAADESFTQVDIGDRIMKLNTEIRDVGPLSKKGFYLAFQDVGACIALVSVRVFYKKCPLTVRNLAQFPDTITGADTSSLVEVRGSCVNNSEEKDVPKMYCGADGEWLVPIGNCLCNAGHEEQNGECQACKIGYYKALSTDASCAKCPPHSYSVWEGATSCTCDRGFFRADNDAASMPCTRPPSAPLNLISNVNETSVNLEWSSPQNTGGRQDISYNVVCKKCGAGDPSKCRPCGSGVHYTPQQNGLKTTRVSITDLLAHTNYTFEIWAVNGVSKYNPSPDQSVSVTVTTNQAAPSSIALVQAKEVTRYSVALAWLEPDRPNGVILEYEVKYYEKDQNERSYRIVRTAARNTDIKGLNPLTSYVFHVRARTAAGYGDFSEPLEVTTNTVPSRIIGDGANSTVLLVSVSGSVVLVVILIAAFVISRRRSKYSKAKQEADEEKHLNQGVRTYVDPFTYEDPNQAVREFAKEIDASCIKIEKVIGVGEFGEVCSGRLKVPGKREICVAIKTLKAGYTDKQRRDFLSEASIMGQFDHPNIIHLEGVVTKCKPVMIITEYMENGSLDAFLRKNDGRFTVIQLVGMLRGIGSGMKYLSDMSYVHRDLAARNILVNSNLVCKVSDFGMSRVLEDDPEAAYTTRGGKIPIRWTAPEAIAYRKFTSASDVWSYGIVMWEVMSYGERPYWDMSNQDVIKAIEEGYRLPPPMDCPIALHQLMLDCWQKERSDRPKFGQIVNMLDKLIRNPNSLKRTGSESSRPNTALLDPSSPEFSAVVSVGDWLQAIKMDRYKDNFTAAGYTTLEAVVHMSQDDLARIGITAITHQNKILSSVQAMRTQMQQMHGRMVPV
Sequence of Cytochrome P450 2C19 (P33261 whole entry): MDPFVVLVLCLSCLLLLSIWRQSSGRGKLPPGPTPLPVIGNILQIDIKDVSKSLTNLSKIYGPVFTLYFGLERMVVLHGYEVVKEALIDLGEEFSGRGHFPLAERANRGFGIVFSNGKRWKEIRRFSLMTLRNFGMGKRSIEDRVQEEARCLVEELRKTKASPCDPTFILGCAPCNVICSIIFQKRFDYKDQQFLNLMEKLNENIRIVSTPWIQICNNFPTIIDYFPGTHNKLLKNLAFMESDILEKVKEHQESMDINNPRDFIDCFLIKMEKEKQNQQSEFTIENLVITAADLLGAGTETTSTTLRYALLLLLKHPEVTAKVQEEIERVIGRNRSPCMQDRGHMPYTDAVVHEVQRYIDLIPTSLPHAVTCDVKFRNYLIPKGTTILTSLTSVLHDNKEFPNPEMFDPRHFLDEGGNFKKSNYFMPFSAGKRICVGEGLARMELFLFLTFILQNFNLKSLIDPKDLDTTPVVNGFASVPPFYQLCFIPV
Sequence of Cytochrome P450 3A4 (P08684 whole entry, the tested form may be a part): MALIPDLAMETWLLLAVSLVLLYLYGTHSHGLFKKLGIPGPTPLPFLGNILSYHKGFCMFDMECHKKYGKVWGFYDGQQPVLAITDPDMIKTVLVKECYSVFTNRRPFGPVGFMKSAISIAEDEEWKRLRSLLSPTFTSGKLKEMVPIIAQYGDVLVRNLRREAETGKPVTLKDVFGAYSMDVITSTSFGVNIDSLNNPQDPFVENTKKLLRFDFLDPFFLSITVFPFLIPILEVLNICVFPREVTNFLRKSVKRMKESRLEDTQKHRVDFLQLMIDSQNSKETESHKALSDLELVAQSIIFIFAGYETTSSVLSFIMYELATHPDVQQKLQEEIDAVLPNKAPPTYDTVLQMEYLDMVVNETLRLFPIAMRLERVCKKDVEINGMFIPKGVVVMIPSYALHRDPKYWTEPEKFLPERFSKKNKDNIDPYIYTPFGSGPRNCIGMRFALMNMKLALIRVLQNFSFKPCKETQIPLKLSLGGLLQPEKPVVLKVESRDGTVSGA
Sequence of Paired box protein Pax-8 (Q06710 whole entry): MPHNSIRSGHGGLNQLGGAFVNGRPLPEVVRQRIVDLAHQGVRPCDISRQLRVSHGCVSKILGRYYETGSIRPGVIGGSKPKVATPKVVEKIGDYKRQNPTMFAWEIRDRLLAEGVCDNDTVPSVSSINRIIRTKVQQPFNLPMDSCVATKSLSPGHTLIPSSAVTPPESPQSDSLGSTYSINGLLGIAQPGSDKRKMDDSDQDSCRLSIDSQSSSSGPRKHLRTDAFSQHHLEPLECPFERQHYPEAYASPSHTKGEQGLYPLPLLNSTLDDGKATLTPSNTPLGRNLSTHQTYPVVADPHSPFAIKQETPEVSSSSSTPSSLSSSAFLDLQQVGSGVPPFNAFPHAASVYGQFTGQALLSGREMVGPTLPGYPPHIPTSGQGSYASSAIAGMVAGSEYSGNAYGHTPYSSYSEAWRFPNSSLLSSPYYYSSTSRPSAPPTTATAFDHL

With NC[C@H]1CC[C@H](C(=O)Oc2ccc(CCC(=O)O)cc2)CC1 [CETRAXATE HYDROCHLORIDE] the IC50 [1] was > 33.3 µM (inactive) and the IC50 [2] was > 33.3 µM (inactive).

With OC1c2cc(Br)ccc2N=C2CCCCN21 (stereo not drawn) the CC50 [3] was > 200 µM (active).

In the case of CCOC(=O)c1c(N=C(S)Nc2ccccc2)sc2c1CCN(CCc1ccccc1)C2, the IC50 [4] was 14.7 µM (active), the AC50 [5] was 22.4 µM (inconclusive) and the AC50 [6] was 22.4 µM (inconclusive).

For Nc1c(SCCC(=O)O)ccc2c1C(=O)c1ccccc1C2=O, the IC50 [7] was 11.7 µM (inactive) and the IC50 [8] was > 83.3 µM (inactive).

For CCOCCCNC(=O)c1ccc2c(c1)N=C(CC)c1cc(Br)ccc1S2, the EC50 [9] was 0.342 µM (active), the EC50 [10] was 0.828 µM (inconclusive) and the EC50 [11] was 0.455 µM (active). For the same compound, the EC50 [12] was 0.358 µM (active), the IC50 [13] was > 80 µM (inactive) and the AC50 [14] was 1.22 µM (active). For the same compound, the AC50 [15] was 15.3 µM (active), the AC50 [16] was 0.403 µM (active) and the AC50 [17] was 1.35 µM (active). The AC50 [18] was 0.3 µM (active), the AC50 [19] was 41.8 µM (active) and the AC50 [20] was 4.78 µM (active). For the same compound, the AC50 [21] was 1.16 µM (active), the AC50 [22] was 1.07 µM (active) and the AC50 [23] was 0.497 µM (active). For the same compound, the AC50 [24] was 0.386 µM (active).

In the case of CC(C)(C)c1nc2sc3c(c2c(=O)o1)CCCC3, the IC50 [25] was > 100 µM (active).

For Cc1cnc(NC(=O)c2cn(-c3ccccc3)nc2-c2cccnc2)s1, the IC50 [26] was > 74.4 µM (inactive).

With CCCCC(CC)CN1CN(CC(CC)CCCC)CC(C)(N)C1 (stereo not drawn) [HEXETIDINE] the IC50 [27] was 26.6 µM (inactive) and the IC50 [28] was 36.4 µM (inactive).
